Experimental data as given in patent publication US5965560A, “Substituted piperazines and piperidines as central nervous system agents” (priority 1997, dated 1999).
pKi: −log10 of the molar value. Structures can show the parent of a compound that is named as a salt.

What was measured:
DA D4 receptor = settings: D4 versus D2; Van Tol et al., Nature 1991; cited from earlier work
[1] = clozapine, background section; cited from earlier work
[2] = molecular target: T1, human D4 dopamine receptor (DA D4) (Homo sapiens, UniProt P21917); experiment: inhibition of radioligand binding to the human D4 dopamine receptor
T1 sequence (P21917 1-419): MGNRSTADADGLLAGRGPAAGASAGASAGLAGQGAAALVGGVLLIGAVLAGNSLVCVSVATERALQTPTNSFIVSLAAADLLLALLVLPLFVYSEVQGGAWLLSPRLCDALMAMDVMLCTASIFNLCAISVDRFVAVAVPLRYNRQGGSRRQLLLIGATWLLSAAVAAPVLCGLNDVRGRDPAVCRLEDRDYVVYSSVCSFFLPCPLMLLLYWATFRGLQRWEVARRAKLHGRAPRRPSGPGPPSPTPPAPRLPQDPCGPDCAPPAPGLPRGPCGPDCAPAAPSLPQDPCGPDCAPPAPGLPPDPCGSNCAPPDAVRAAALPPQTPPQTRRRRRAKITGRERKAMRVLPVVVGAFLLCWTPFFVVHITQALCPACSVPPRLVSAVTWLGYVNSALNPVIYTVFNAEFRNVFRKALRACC
Method: Compounds were tested for their ability to bind to dopamine receptors as measured by their inhibition of [^3 H]spiperone binding to the human D2, D3 receptors in a receptor assay described by MacKenzie R. G., VanLeeuwen D., Pugsley T. A., et al., "Characterization of the human dopamine D3 receptor expressed in transfected cell lines." Eur. J. Pharmacol.-Mol. Pharmacol., 1994;266:79-85; for the human D4 dopamine receptor in a receptor assay by Pugsley T. A., Davis M. D., Akunne H. C., et al., "CI-1007, a dopamine partial agonist and potential antipsychotic agent. I. Neurochemical Effects." J. Pharmacol. Exp. Ther., 1995;274:898-911; and for ability to block the action of an agonist in a [^3 H]thymidine incorporation assay described by Lajiness N. E., Chio C. L., Huff R. M., "D2 dopamine receptor stimulation of mitogenesis in transfected Chinese hamster ovary cells: relationship to dopamine stimulation of tyrosine phosphorylations." J. Pharmacol. Exp. Ther., 1993;267:1573-81. This test determines the agonist/antagonist character of a compound by measuring [^3 H]thymidine update in Chinese hamster ovary (CHO) pro-5 cells expressing the DA D4 receptor. Agonists, such as quinpirole, promote cell growth and subsequent [^3 H]thymidine incorporation, while antagonists block the action of agonists. […] The above test methods are incorporated herein by reference.

[3] = molecular target: human D3 receptor (DA D3) (Homo sapiens, UniProt P35462); experiment: inhibition of [^3 H]spiperone binding to the human D3 receptor; settings: human D3, [^3 H]spiperone
[4] = molecular target: human D2 receptor (DA D2) (Homo sapiens, UniProt P14416); experiment: inhibition of [^3 H]spiperone binding to the human D2 receptor; settings: human D2, [^3 H]spiperone
Sequence of human D2 receptor (DA D2) (P14416 whole entry): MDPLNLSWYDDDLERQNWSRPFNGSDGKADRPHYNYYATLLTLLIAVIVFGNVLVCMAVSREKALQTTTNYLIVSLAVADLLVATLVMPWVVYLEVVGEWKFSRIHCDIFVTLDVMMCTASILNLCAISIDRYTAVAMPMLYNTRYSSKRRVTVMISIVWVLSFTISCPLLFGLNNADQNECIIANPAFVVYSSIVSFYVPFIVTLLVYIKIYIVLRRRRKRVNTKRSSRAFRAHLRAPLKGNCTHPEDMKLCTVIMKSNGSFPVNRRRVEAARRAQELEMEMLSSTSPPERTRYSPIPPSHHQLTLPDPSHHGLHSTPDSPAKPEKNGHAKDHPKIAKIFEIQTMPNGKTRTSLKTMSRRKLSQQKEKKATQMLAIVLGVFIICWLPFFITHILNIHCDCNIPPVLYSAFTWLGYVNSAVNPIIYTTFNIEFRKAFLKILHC

Sequence of human D3 receptor (DA D3) (P35462 whole entry): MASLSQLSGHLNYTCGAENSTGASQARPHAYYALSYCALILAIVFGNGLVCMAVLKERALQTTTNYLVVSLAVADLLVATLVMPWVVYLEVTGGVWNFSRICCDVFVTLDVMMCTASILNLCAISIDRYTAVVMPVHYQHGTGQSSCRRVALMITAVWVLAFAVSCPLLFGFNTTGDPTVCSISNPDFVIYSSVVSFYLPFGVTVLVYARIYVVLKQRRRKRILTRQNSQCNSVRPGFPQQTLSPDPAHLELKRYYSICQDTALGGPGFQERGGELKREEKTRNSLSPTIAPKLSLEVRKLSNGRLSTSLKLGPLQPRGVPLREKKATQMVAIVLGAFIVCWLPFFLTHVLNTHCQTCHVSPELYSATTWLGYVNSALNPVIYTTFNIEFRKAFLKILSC

Row | Compound | affinity for the DA D4 receptor relative to D2 (DA D4 receptor) | extrapyramidal side effects and tardive dyskinesia [1] | pKi [2] | pKi [3] | pKi [4]
1 | CN1CCN(C2=Nc3cc(Cl)ccc3Nc3ccccc32)CC1 [clozapine] | tenfold higher affinity | lack of extrapyramidal side effects and tardive dyskinesia | – | – | –
2 | COc1ccc(CN2CCN(c3cccc(C)c3Cl)CC2)c(OC)c1 [Example 27, 1-(2-Chloro-3-methylphenyl)-4-(2,4-dimethoxybenzyl)-piperazine, monohydrochloride] | – | – | 8.36 | 6.39 | 6.12
3 | COc1cc(CN2CCN(c3ccc(C)cc3)CC2)cc(OC)c1OC [Example 8, 1-p-Tolyl-4-(3,4,5-trimethoxybenzyl)piperazine, monohydrochloride] | – | – | 8.12 | 5.17 | 5.85
4 | COc1cccc(CN2CCN(c3cccc(C)c3Cl)CC2)c1OC [Example 26, 1-(2-Chloro-3-methylphenyl)-4-(2,3-dimethoxybenzyl)-piperazine, monohydrochloride] | – | – | 7.90 | 5.58 | 5.54
5 | COc1cc(CN2CCN(c3cccc(C)c3)CC2)cc(OC)c1OC [Example 7, 1-m-Tolyl-4-(3,4,5-trimethoxybenzyl)piperazine, monohydrochloride] | – | – | 8.07 | 5.56 | 5.84
6 | COc1ccc(OC)c(CN2CCN(c3cccc(C)c3Cl)CC2)c1 [Example 28, 1-(2-Chloro-3-methylphenyl)-4-(2,5-dimethoxybenzyl)-piperazine, monohydrochloride] | – | – | 7.95 | 6.14 | 5.68
7 | COc1ccc(CN2CCN(c3cccc(C)c3Cl)CC2)cc1OC [Example 29, 1-(2-Chloro-3-methylphenyl)-4-(3,4-dimethoxybenzyl)-piperazine, monohydrochloride] | – | – | 8.30 | 5.92 | 5.63
8 | COc1cc(CN2CCN(c3cccc(Cl)c3C)CC2)cc(OC)c1OC [Example 19, 1-(3-Chloro-2-methylphenyl)-4-(3,4,5-trimethoxybenzyl)-piperazine, monohydrochloride] | – | – | 8.21 | 5.67 | 5.98
9 | COc1cc(CN2CCN(c3ccc(C)c(Cl)c3)CC2)cc(OC)c1OC [Example 20, 1-(3-Chloro-4-methylphenyl)-4-(3,4,5-trimethoxybenzyl)-piperazine, monohydrochloride] | – | – | 8.35 | 5.69 | 5.48
10 | COc1cc(CN2CCN(c3cc(Cl)ccc3C)CC2)cc(OC)c1OC [Example 21, 1-(5-Chloro-2-methylphenyl)-4-(3,4,5-trimethoxybenzyl)-piperazine, monohydrochloride] | – | – | 8.19 | 5.45 | 5.81
